Data taken from paper PMC7459852, “Identification of 6-(piperazin-1-yl)-1,3,5-triazine as a chemical scaffold with broad anti-schistosomal activities” (Wellcome Open Research, 2020).
Where two headings read alike, the source gives them in different places.

Tests used:
S. mansoni schistosomula = assay: Schistosomula screens (Roboworm, phenotype and motility); type: cell-based, Schistosoma mansoni; details: 72 h; for EC50: Schistosoma mansoni
Method: Anthelmintic activity on the schistosomula stage of S. mansoni was evaluated using Roboworm, an integrated high-throughput, high content image analysis platform originally developed by Paveley et al. and subsequently used by our research group as previously described, [28], [50], [51]. Alternatively, the computer application Worminator can be used to assess motion of microscopic parasites such as the schistosomula stage of S. mansoni. Compounds (as single concentration or two-fold titrations) were prepared for screening in a 384-well plate (PerkinElmer, MA, USA), where solutions (1.6 mM, 0.5 μl) were wet stamped using the Biomek NX ^P liquid handling platform into Basch medium (20 μl). Negative (0.625% DMSO) and positive (Auranofin - AUR - at 10 µM final concentration in 0.625% DMSO) control wells were similarly prepared. Mechanically transformed schistosomula (about 120 parasites in 60 μl of Basch medium) were distributed into each treated well using a WellMate (Thermo Scientific, Loughborough, UK). Schistosomula/compound co-cultures were then incubated at 37°C for 72 h in a humidified atmosphere containing 5% CO 2. At 72 h, parasite/compound co-cultures were resuspended and tissue culture plates were imaged under the same conditions (37°C for 72 h in a humidified atmosphere containing 5% CO 2) using an ImageXpressXL high content imager (Molecular Devices, UK) with subsequent images processed for phenotype and motility as previously reported. Plate analysis returned a phenotype and motility score for each well and any scores below -0.15 and -0.35 (defined threshold anti-schistosomula values for phenotype and motility scores, respectively) defined a condition displaying anti-schistosomula activity. Compound screens were assessed based on the Z´ values (derived from the means and standard deviations of positive and negative controls) and those equal to or above 0.3 for both phenotype and motility were considered successful.
Phenotype and motility scores of each titration were used to generate dose response curves in GraphPad Prism 7.02 based on the corrected average score of the three replicates for each data point.

[1] = MTT cytotoxicity assay on HepG2 cells; type: cell-based, Human; details: human, HepG2 cells, MTT, 24 h; three dose response titrations (200 - 1 µM)
Method: (§1) Compound cytotoxicity on Human Hepatocyte Carcinoma (HepG2) cells (85011430, Sigma Aldrich) was elucidated by the MTT (3-(4,5-dimethylthiazol-2-yl)-2,5-diphenyltetrazolium bromide) tetrazolium reduction assay as previously described, [28], [50]. Briefly, HepG2 cells were seeded at a density of 20,000 per well in 96-well black, clear bottom falcon plate in modified BME medium (50 μl; containing 1% antibiotic/mycotic (Sigma-Aldrich, Gillingham, UK), 1% 200 mM L-glutammine (Gibco, Paisley, UK), 1% MEM non-essential amino acid solution (Gibco, Paisley, UK), and 10% fetal bovine serum (Gibco, Paisley, UK)). HepG2 plates seeded for cytotoxicity screens were treated with compounds 24 h post-seeding. Each compound was tested at 200, 100, 75, 50, 20, 10 and 1 µM; each concentration was assayed in triplicate. Blank wells (no cells), as well as positive (1% v/v Triton X-100, X100, Sigma-Aldrich) and negative (1.25% v/v DMSO or media only) controls, were included in each plate. After addition of compounds, each plate was then incubated for a further 20 h before application of MTT reagent for assessment of compound cytotoxicity (4 h incubation with MTT for a total 24 h cell-drug incubation). The absorbance reading at 570 nm was measured with a POLARstar Omega (BMG Labtech, UK) microtiter plate reader. Dose response curves were generated in GraphPad Prism 7.02 based on the corrected average absorbance of the three replicates for each concentration point.

HepG2 cells = assay: MTT cytotoxicity assay on HepG2 cells; type: cell-based, Human; details: dose response titration
Method: as §1

S. mansoni adult worms = assay: Adult worm screens (WormassayGP2 motility, egg count); type: cell-based, Schistosoma mansoni; details: 72 h; for adult worm motility and oviposition: 6.25 µM, compared to compound 7; for adult worm egg production / adult worm motility compared to compound 7: 12.5 µM
Method: For compound screening, adult worms (three worm pairs/well for compound 7 and the hit compounds of set two; one worm pair/well for the hit compounds of set three) were transferred into wells of a 48-well tissue culture plate containing 1 ml of adult worm media. Adult worms were treated with compounds previously identified as hits at 10 µM on 72 h cultured schistosomula. Worms were dosed with an appropriate volume of 10 mM stock solution of each compound (in DMSO) to have a concentration range of 50 – 6.25 µM (up to 0.5% DMSO, primary screen of compound 7). Secondary screens were performed on the structural analogues of compound 7 (only the schistosomula hits at 10 µM) at a single concentration (12.5 µM) and compared to the same concentration of the parental compound (included in the screen as reference). DMSO (0.5%) and praziquantel (10 µM in 0.5% DMSO) were also included as negative and positive control treatments (both primary and secondary screens). Treated adult worms were incubated for 72 h in a humidified environment at 5% CO 2 at 37°C. Parasite motility after drug treatment was assessed by a digital image processing-based system (WormassayGP2, see Software availability) modified after Wormassay, [56], [57]. Egg production was assessed according to the methodology described by Edwards et al..

S. mansoni miracidia = assay: Miracidia to sporocyst transformation screens; type: cell-based, Schistosoma mansoni; details: 10 µM, 48 h
Method: Following hatching of S. mansoni eggs, miracidia were incubated on ice for 15 min and then centrifuged at 700 x g for 5 min at 4°C. The miracidia pellet was then re-suspended in 5 ml of Chernin's balanced salt solution (CBSS), subjected to pelleting and two subsequent washes (all at 700 x g for 5 min at 4°C). Afterwards, the supernatant was carefully removed with a serological pipette and the miracidia-enriched pellet was resuspended with CBSS supplemented with 1 mg/ml each of glucose and trehalose and 500 µl of Penicillin-Streptomycin (containing 10,000 units penicillin and 10 mg streptomycin/ml, P4333, Sigma-Aldrich). In preparation for the screens, CBSS (250 µl) was aliquoted to each well of a 24-well plate followed by addition of each compound in DMSO (1 mM concentration in 1% DMSO) or DMSO alone (1%, negative control). Next, approximately 20-25 miracidia (in 250 µl of CBSS) were aliquoted to each well. […] Both preliminary and secondary screens were performed in duplicate on two separate occasions (two independent biological replicates). Miracidia were incubated for 48 h at 26°C before being evaluated using an Olympus inverted light microscope for morphological and behavioural changes differing from the control wells. Dead, partially transformed and fully transformed miracidia were enumerated in the DMSO control and the assay plates as previously described, [23], [59]. […] Absence of ciliated plates attached to the surface of the parasite and formation of sporocyst tegument defined the so-called “fully transformed” parasites.

[2] = system: schistosomula and adult schistosomes; design: method as in PMID 31730617; details: SGC collection tested by the authors' laboratory; cited from earlier work
[3] = average of phenotype and motility metrics, read-out: Schistosomula EC50 Average
[4] = dose response titrations (10 - 0.625 µM), read-out: Schistosomula EC50 Motility
[5] = dose response titrations (10 - 0.625 µM), read-out: Schistosomula EC50 Phenotype

| Compound | EC50 (S. mansoni schistosomula; [3]) [µM] | EC50 (S. mansoni schistosomula; [4]) [µM] | EC50 (S. mansoni schistosomula; [5]) [µM] | activity on schistosomula and adult schistosomes [2] | also measured |
| --- | --- | --- | --- | --- | --- |
| C1CN(c2nc(N3CCOCC3)nc(N3CCOCC3)n2)CCN1 [Compound 10] | > 50 | > 50 | > 50 |  |  |
| c1ccc2sc(N3CCN(c4nc(N5CCOCC5)nc(N5CCOCC5)n4)CC3)nc2c1 [Compound 11] | > 50 | > 50 | > 50 |  |  |
| c1ccc(Nc2nc(N3CCNCC3)nc(N3CCOCC3)n2)cc1 [Compound 22] |  | 1.64 | 2.09 |  | CC50 at 24 h [1]: 93.5 µM; anti-schistosomula activity (hit on phenotype and motility) (S. mansoni schistosomula; 50 µM): active at the highest concentration |
| Cc1ccc(Nc2nc(N3CCNCC3)nc(N3CCN(c4ccccc4)CC3)n2)cc1 [Compound 24] |  | 1.81 | 1.57 |  | cytotoxicity on HepG2 cells (in words) (HepG2 cells): showed the highest toxicity; adult worm motility and oviposition (S. mansoni adult worms): the most potent; adult worm egg production (S. mansoni adult worms): greater potency than compound 7; adult worm motility compared to compound 7 (S. mansoni adult worms): greater potency than compound 7; effect on miracidia (S. mansoni miracidia): readily killed miracidia; anti-schistosomula activity (hit on phenotype and motility) (S. mansoni schistosomula; 50 µM): active at the highest concentration |
| Cc1ccccc1Nc1nc(N2CCNCC2)nc(N2CCOCC2)n1 [Compound 14] | > 10 | > 10 | > 10 |  | anti-schistosomula activity (hit on phenotype and motility) (S. mansoni schistosomula; 50 µM): only active at 50 µM |
| CC(=O)Nc1ccc(S(=O)(=O)N2CCN(c3nc(N4CCCCC4)nc(N4CCCCC4)n3)CC2)cc1 [Compound 20] |  | 4.93 | 3.47 |  | cytotoxicity on HepG2 cells (in words) (HepG2 cells): not toxic to this cell line, except for concentrations above 100 µM; CC50 at 24 h [1]: > 100 µM; adult worm motility and oviposition (S. mansoni adult worms): strong anthelmintic activities; adult worm egg production (S. mansoni adult worms): greater potency than compound 7; adult worm motility compared to compound 7 (S. mansoni adult worms): greater potency than compound 7; effect on miracidia (S. mansoni miracidia): readily killed miracidia; anti-schistosomula activity (hit on phenotype and motility) (S. mansoni schistosomula; 50 µM): active at the highest concentration |
| C1CCN(c2nc(N3CCCC3)nc(N3CCNCC3)n2)C1 [Compound 17] |  | > 10 | > 10 |  | anti-schistosomula activity (hit on phenotype and motility) (S. mansoni schistosomula; 50 µM): active at the highest concentration |
| CCN(C(=O)CO)[C@H]1CN(/C(=N\C#N)Nc2cccc(OC(F)F)c2)N=C1c1ccc(Cl)c(Cl)c1 [BAY-598] |  |  |  | potent activities |  |
| CC(C)Oc1ccc(-c2c[nH]cc2CN(C)CCN)cc1 [MS023] |  |  |  | potent activities |  |
| CCOC(=O)CCNc1cc(N2CCc3ccccc3CC2)nc(-c2ccccn2)n1 [GSK-J4] |  |  |  | potent activities |  |
| CCCc1cc(C)[nH]c(=O)c1CNC(=O)c1cc(-c2ccc(N3CCN(C(C)C)CC3)nc2)cc2c1cnn2C(C)C [UNC1999] |  |  |  | potent activities |  |
| O=C1CNC(=O)/C1=C\Nc1ccc(O)cc1 [Compound 4] |  |  |  |  | anti-schistosomula activity (hit on phenotype and motility) (S. mansoni schistosomula; 50 µM): showed anti-schistosomal activity; schistosomula phenotype induced (S. mansoni schistosomula; 50 µM): elongated phenotype |
| O=[N+]([O-])c1ccc2nc(N3CCN(c4nc(N5CCOCC5)nc(N5CCOCC5)n4)CC3)sc2c1 [Compound 21] | > 50 | > 50 | > 50 |  |  |
| Cc1ccc(Nc2nc(N3CCNCC3)nc(N3CCOCC3)n2)cc1 [Compound 15] | 1.44 | 1.79 | 1.09 |  | CC50 at 24 h [1]: 23.9 µM; adult worm egg production (S. mansoni adult worms): reducing egg production similarly to compound 7; adult worm motility compared to compound 7 (S. mansoni adult worms): more potent than the original hit compound; effect on miracidia (S. mansoni miracidia): all readily killed miracidia except for compounds 15 and 16 |
| O=C(c1ccc(Cl)cc1)N1CCN(c2nc(N3CCCCC3)nc(N3CCCCC3)n2)CC1 [Compound 19] | > 50 | > 50 | > 50 |  |  |
| O=S(=O)(c1ccc(Cl)cc1)N1CCN(c2nc(N3CCCCC3)nc(N3CCCCC3)n2)CC1 [Compound 18] | > 50 | > 50 | > 50 |  |  |
| c1ccc(CNc2nc(Nc3ccccc3)nc(N3CCNCC3)n2)cc1 [Compound 12] | 4.49 | 4.41 | 4.57 |  | CC50 at 24 h [1]: 11 µM; adult worm egg production (S. mansoni adult worms): reducing egg production similarly to compound 7; adult worm motility compared to compound 7 (S. mansoni adult worms): more potent than the original hit compound; effect on miracidia (S. mansoni miracidia): readily killed miracidia |
| c1ccc(Nc2nc(Nc3ccccc3)nc(N3CCNCC3)n2)cc1 [Compound 8] | 4.12 | 4.98 | 3.27 |  | CC50 at 24 h [1]: 14.9 µM; adult worm egg production (S. mansoni adult worms): reducing egg production similarly to compound 7; adult worm motility compared to compound 7 (S. mansoni adult worms): more potent than the original hit compound; effect on miracidia (S. mansoni miracidia): readily killed miracidia |
| Cc1ccccc1Nc1nc(Nc2ccccc2C)nc(N2CCNCC2)n1 [Compound 13] | 4.76 | 4.82 | 4.7 |  | CC50 at 24 h [1]: 17.9 µM; effect on miracidia (S. mansoni miracidia): readily killed miracidia |
| Cc1cn(CCN2CCN(c3ccccc3-c3cc(C#N)cc(C(=O)NCCCN4CCCC4)c3)CC2)c2ccccc12 [LLY-507] |  |  |  | potent activities |  |
| CCCc1cc(C)[nH]c(=O)c1CNC(=O)c1cc(-c2ccnc(N3CCN(C)CC3)c2)cc2c1cnn2C(C)C [GSK343] |  |  |  | potent activities |  |
| Clc1cc2c(NC3CCCC3)nnc(-c3ccncc3)c2cc1Cl [Compound A-196] |  |  |  | potent activities |  |
| COc1cc(C(=O)N2CC[C@@H](O)[C@@H](N)C2)cc2nc(-c3cc4ccccc4n3CC3CC3)n(C)c12 [GSK484] |  |  |  | potent activities |  |
